# In patent US11840686B2, “Modulation of prekallikrein (PKK) expression” (Ionis Pharmaceuticals, Inc., priority 2013, dated 2023):
# e = 2'-O-(2-methoxyethyl) (MOE); d = 2'-deoxy (DNA)
# What was measured:
# C1-INH mRNA = C1-INH mRNA in liver of mice treated with ISIS 461756 (Example 18); type: in vivo, mouse; settings: for Percent inhibition of C1-INH mRNA expression compared to the untreated PBS control: liver, all groups ISIS 461756 25 mg/kg/wk, pretreatment PBS or oligonucleotide 80 mg/kg/wk sc 3 weeks
# Procedure: (§1) Vascular permeability induced by ISIS 461756, an antisense oligonucleotide which targets murine C1 inhibitor mRNA, increases vascular permeability in mice and replicates the pathology of hereditary angioedema. The effect of ISIS 482584 on this model was evaluated.
# (§2) One group of 8 mice was treated with 40 mg/kg ISIS 482584 administered subcutaneously twice a week for 3 weeks (weekly dose of 80 mg/kg). A second group of 8 mice was treated with 40 mg/kg of the control oligonucleotide, ISIS 141923, administered subcutaneously twice a week for 3 weeks (weekly dose of 80 mg/kg). A third group of 8 mice was treated with PBS administered subcutaneously twice a week for 3 weeks. On day 14, all the groups were treated with 12.5 mg/kg ISIS 461756 administered subcutaneously twice a week for 3 weeks (weekly dose of 25 mg/kg). A control group of mice was treated with PBS administered subcutaneously twice a week for 3 weeks but was not administered ISIS 461756.
# (§3) At the end of the treatment period, all the groups were injected with 30 mg/kg of Evans Blue solution into the tail vein. The mice were sacrificed 30 min after the Evans Blue solution administration and colons, feet, ears, and intestines were harvested. The liver was also harvested for RNA analysis.
# (§4) RNA was isolated from the liver for RT-PCR analysis of C1-INH and PKK mRNAs. The primer probe set for C1-INH is RTS3218 (forward sequence […], designated herein as SEQ ID NO: 2234; reverse sequence […], designated herein as SEQ ID NO: 2235; probe sequence […], designated herein as SEQ ID NO: 2236). The primer probe set for PKK is RTS3287 (forward sequence […], designated herein as SEQ ID NO: 2237; reverse sequence […], designated herein as SEQ ID NO: 2238; probe sequence […], designated herein as SEQ ID NO: 2239). The results are presented in Table 79 as percent inhibition compared to the PBS control not treated with ISIS 461756.
# [1] = tested on: vascular permeability induced by ISIS 461756; test: C1-INH antisense oligonucleotide-induced vascular permeability, Evans Blue OD600 (Example 18); type: in vivo, mouse; settings: Evans Blue OD600; all groups ISIS 461756 25 mg/kg/wk; pretreatment PBS or oligonucleotide 80 mg/kg/wk
# Procedure: as §1, §2, §3
# The harvested tissues from the feet, colon, and intestines were placed in formamide solution overnight to leach out the Evans Blue dye. The formamide solution containing feet tissue was heated to 55° C. and left overnight. The color intensity of the dye-infused formamide solution was then measured at OD600 nm. The data is presented in Table 80 as percent increase or reduction compared to the PBS control not treated with ISIS 461756.
# [2] = tested on: captopril and ISIS 461756-induced vascular permeability; test: Evans Blue vascular permeability in captopril and ISIS 461756-induced angioedema mouse models (Example 11); type: in vivo; settings: captopril Yes, ISIS 461756 Yes; ISIS oligonucleotides 40 mg/kg sc twice a week 4 weeks; HOE-140 30 μg ip
# Text: Hereditary angioedema (HAE) is characterized by local swelling and increase in vascular permeability in subcutaneous tissues (Morgan, B. P. N. Engl. J. Med. 363: 581-83, 2010). It is caused by a deficiency of the C1 inhibitor, a protein of the complement system. Two mouse models were used in this study including an established mouse model of C1-INH deficiency and a captopril-induced edema model, both of which cause vascular permeability, a hallmark of HAE. Reversal of vascular permeability is accompanied by increased plasma levels of high molecular weight kininogen (HMWK).
# In the first model, angioedema was induced by treatment with Captopril, a known antihypertensive agent, which increases vascular permeability in mice and replicates the pathology of hereditary angioedema.
# In the second model, angioedema was induced by treatment with ISIS 461756, an antisense oligonucleotide which targets murine C1 inhibitor mRNA, which increases vascular permeability in mice and replicates the pathology of hereditary angioedema. ISIS 461756 (SEQ ID NO: 2245; […]) is a 5-10-5 MOE gapmer targeting nucleosides 1730-1749 of NM_009776.3 (SEQ ID NO: 2243).
# The effect of HOE-140 and ISIS 482584, an antisense oligonucleotide inhibitor of PKK, were evaluated in the Captopril and ISIS 461756-induced mouse models of vascular permeability. Some of the murine groups were treated with HOE-140, a selective antagonist of the bradykinin B2 receptor, which blocks vasodilation and vascular permeability (Cruden and Newby, Expert Opin. Pharmacol. 9: 2383-90, 2008). Other mice were treated with ISIS 482584, which inhibits PKK mRNA expression. The effect of treatment with HOE-140 was compared with the effect of treatment with ISIS 482584.
# Group 1 consisted of 4 C57BL/6J-Tyrc-2J mice treated with PBS administered subcutaneously twice a week for 4 weeks. No other treatment was administered to Group 1 which served as a control group to measure the basal level of vascular permeability.
# Group 2 consisted of 8 C57BL/6J-Tyrc-2J mice treated with PBS administered subcutaneously twice a week for 4 weeks. At the end of the treatment, the mice were intraperitoneally administered 20 μg of captopril. Group 2 served as a PBS control group for captopril-induced vascular permeability.
# (§5) Group 3 consisted of 8 C57BL/6J-Tyrc-2J mice treated with PBS administered subcutaneously twice a week for 4 weeks. On day 14, the mice were treated with 50 mg/kg of the antisense oligonucleotide targeting C1 inhibitor, ISIS 461756, administered subcutaneously twice a week for 2 weeks. At the end of the treatment period, the mice were intraperitoneally administered 20 μg of captopril. Group 3 served as a PBS control group for captopril and ISIS 461756-induced vascular permeability.
# Group 4 consisted of 8 C57BL/6J-Tyrc-2J mice treated with PBS administered subcutaneously twice a week for 4 weeks. On day 14, the mice were treated with 50 mg/kg of the antisense oligonucleotide targeting C1 inhibitor, ISIS 461756, administered subcutaneously twice a week for 2 weeks. At the end of the treatment period, the mice were intraperitoneally administered 20 μg of captopril. The mice were then also intraperitoneally administered 30 μg of HOE-140. Group 4 served as a positive control for inhibition of vascular permeability with HOE-140.
# as §5, with “5” for “3”, “40 mg/kg of control oligonucleotide ISIS 141923, a 5-10-5 MOE gapmer with no known murine target, ([…]; SEQ ID NO: 2246)” for “PBS”, “a” for “a PBS”, “permeability. […]” for “permeability.”
# PKK mRNA = PKK mRNA in liver of mice treated with ISIS 461756 (Example 18); type: in vivo, mouse; settings: liver; all groups ISIS 461756 25 mg/kg/wk; pretreatment PBS or oligonucleotide 80 mg/kg/wk sc 3 weeks
# Procedure: as §1, §2, §3, §4
# [3] = Tolerability / clinical observation of cynomolgus monkeys (Example 8); type: in vivo, cynomolgus monkey; settings: cynomolgus monkeys, 40 mg/kg s.c.
# Procedure: Cynomolgus monkeys were treated with ISIS antisense oligonucleotides selected from studies described above. Antisense oligonucleotide efficacy and tolerability were evaluated. The human antisense oligonucleotides tested are cross-reactive with the rhesus genomic sequence (GENBANK Accession No. NW_001118167.1 truncated from nucleotides 2358000 to 2391000 and designated herein as SEQ ID NO: 18).
# During the study period, the monkeys were observed a minimum of once daily for signs of illness or distress. Any animal experiencing more than momentary or slight pain or distress due to the treatment, injury or illness was promptly reported to the responsible veterinarian and the Study Director. Any animal in poor health or in a possible moribund condition was identified for further monitoring and possible euthanasia. […] The protocols described in the Example were approved by the Institutional Animal Care and Use Committee (IACUC).
# [4] = cynomolgus monkey, in vivo, sc, 40 mg/kg
# Procedure: (§6) Prior to the study, the monkeys were kept in quarantine for a 30-day period, during which the animals were observed daily for general health. The monkeys were 2-4 years old and weighed between 2 and 4 kg. Ten groups of four randomly assigned male cynomolgus monkeys each were injected subcutaneously with ISIS oligonucleotide or PBS. PBS solution or ISIS oligonucleotides at a dose of 40 mg/kg were administered initially with a loading regimen consisting of four doses on the first week of the study (days 1, 3, 5, and 7), followed by a maintenance regimen consisting of once weekly administration starting on Day 14 (weeks 2 to 13). Subcutaneous injections were performed in clock-wise rotations at 4 sites on the back; one site per dose. The injection sites were delineated by tattoo, while sedated using ketamine, and were separated by a minimum of 3 cm.
# To evaluate any inflammatory effect of ISIS oligonucleotides in cynomolgus monkeys, the monkeys were fasted overnight. Approximately, 1.5 mL of blood samples were collected from all the study groups. Blood was collected in tubes without anticoagulant for serum separation. The tubes were kept at room temperature for a minimum of 90 min and then centrifuged at 3,000 rpm for 10 min. C-reactive protein (CRP), which is synthesized in the liver and which serves as a marker of inflammation, was measured using a Toshiba 120FR NEO chemistry analyzer (Toshiba Co., Japan). Complement C3 was also measured similarly, and the data is presented as a percentage of baseline values.
# [5] = cynomolgus monkey, in vivo, sc, 40 mg/kg; remark: listed apart in the source
# [6] = cynomolgus monkey, in vivo, sc, 40 mg/kg; remark: listed apart in the source
# Procedure: as §6
# Kidney function was also assessed by urinalysis. Fresh urine from all animals was collected using a clean cage pan on wet ice. Food was removed overnight the day before fresh urine collection was done but water was supplied. The total protein and creatinine levels were measured using a Toshiba 120FR NEO automated chemistry analyzer (Toshiba Co., Japan) and the protein to creatinine ratio was calculated.
# [7] = cynomolgus monkey, in vivo, sc, 40 mg/kg; remark: listed apart in the source
# Procedure: as §6
# To evaluate any effect of ISIS oligonucleotides in cynomolgus monkeys on hematologic parameters, blood samples of approximately 1.2 mL of blood was collected pre-dose and on day 87 or day 88 from each of the available study animals in tubes containing K2-EDTA. Samples were analyzed for red blood cell (RBC) count, white blood cells (WBC) count, platelet count, hemoglobin content and hematocrit, using an ADVIA2120i hematology analyzer (SIEMENS, USA).
# PKK protein = PKK protein in cynomolgus monkey plasma by ELISA (Example 8); type: in vivo; settings: 40 mg/kg sc
# Procedure: Approximately 0.9 mL of blood was collected each time from all available animals at pre-dose, day 17, day 31, day 45, day 59, and day 73, and placed in tubes containing 3.2% sodium citrate. The tubes were centrifuged (3000 rpm for 10 min at room temperature) to obtain plasma. PKK protein levels were measured in the plasma by ELISA. The results are presented in Table 52, expressed as percentage inhibition compared to the PBS control levels.
# [8] = cynomolgus monkey, in vivo, sc, 40 mg/kg; remark: listed apart in the source
# Procedure: as §6
# To evaluate the effect of ISIS oligonucleotides on hepatic function, the monkeys were fasted overnight. Approximately, 1.5 mL of blood samples were collected from all the study groups. Blood was collected in tubes without anticoagulant for serum separation. The tubes were kept at room temperature for a minimum of 90 min and then centrifuged at 3,000 rpm for 10 min. Levels of various liver function markers were measured using a Toshiba 120FR NEO chemistry analyzer (Toshiba Co., Japan).
substance,measurement,setting,value
"ISIS 141923: control oligonucleotide, 5-10-5 MOE gapmer with no known murine target, CCTTCCCTGAAGGTTCCTCC; SEQ ID NO: 2246 (sugars from the 5' end e5 d10 e5, backbone and methylation of C not given here) [reference compound]",Percent inhibition of C1-INH mRNA expression compared to the untreated PBS control,C1-INH mRNA,79%
same,"Percent change in vascular permeability compared to the untreated PBS control, Colon",[1],2%
same,"Percent change in vascular permeability compared to the untreated PBS control, Feet",[1],80%
same,"Percent change in vascular permeability compared to the untreated PBS control, Intestines",[1],14%
same,"OD600 nm of Evans Blue dye, Colons",[2],0.44
same,"OD600 nm of Evans Blue dye, Ears",[2],0.08
same,"OD600 nm of Evans Blue dye, Feet",[2],0.14
same,"OD600 nm of Evans Blue dye, Intestines",[2],0.29
same,Percent inhibition of PKK mRNA expression compared to the untreated PBS control,PKK mRNA,0%
"ISIS 461756: 5-10-5 MOE gapmer which targets murine C1 inhibitor mRNA, AAAGTGGTTGATACCCTGGG; SEQ ID NO: 2245 (sugars from the 5' end e5 d10 e5, backbone and methylation of C not given here)",Percent inhibition of C1-INH mRNA expression compared to the untreated PBS control,C1-INH mRNA,76%
same,C1-INH mRNA expression,"C1-INH mRNA; mouse liver, 12.5 mg/kg ISIS 461756 s.c. twice a week",significantly reduced C1-INH mRNA expression
same,"Percent change in vascular permeability compared to the untreated PBS control, Colon",[1],13%
same,"Percent change in vascular permeability compared to the untreated PBS control, Feet",[1],70%
same,"Percent change in vascular permeability compared to the untreated PBS control, Intestines",[1],27%
same,Percent inhibition of PKK mRNA expression compared to the untreated PBS control,PKK mRNA,0%
"ISIS 547445: gapmer targeting human PKK, selected from earlier screens; sequence in a table not shown (antisense GCCACTATAGATGCGCCAAA; gapmer, wing chemistry not given here)","clinical observation, euthanasia",[3],two monkeys treated with ISIS 547445 were euthanized
"ISIS 547927: antisense oligonucleotide targeting human PKK; sequence in a table not shown (ATGGTCCGACACACAA; deoxy, MOE and cEt modifications, further chemistry not given here)",C3 (% of baseline),[4],73 % of baseline
same,CRP,[4],0.2 mg/dL
same,Plasma BUN,[5],22.3 mg/dL
same,Plasma Creatinine,[5],1.0 mg/dL
same,Urine protein/creatinine ratio,[6],0.04
same,HCT,[7],41%
same,Hemoglobin,[7],12.5 g/dL
same,Platelets,[7],461000 µL⁻¹
same,RBC,[7],5.2e+06 µL⁻¹
same,WBC,[7],45000 µL⁻¹
same,PKK protein level reduction (%) in plasma relative to control levels,PKK protein; Day 17,8%
same,PKK protein level reduction (%) in plasma relative to control levels,PKK protein; Day 31,0%
same,PKK protein level reduction (%) in plasma relative to control levels,PKK protein; Day 45,15%
same,PKK protein level reduction (%) in plasma relative to control levels,PKK protein; Day 59,10%
same,PKK protein level reduction (%) in plasma relative to control levels,PKK protein; Day 73,18%
same,ALT,[8],61 IU/L
same,AST,[8],59 IU/L
same,Albumin,[8],4.2 g/dL
